The source of these data is patent US20160102316A1, “STRESS TOLERANT PLANTS” (CONSEJO SUPERIOR DE INVESTIGACIONES CIENTIFICAS(CSIC), priority 2013, published 2016).

One test has as its system HA-PYL8 transcript. Put plainly: HA-PYL8 transcript levels in ABA-treated seeds (semiquantitative RT-PCR). The format is in vivo, Arabidopsis. The conditions noted are these: oeHA-PYL8 seeds, ABA treatment for 24 h. The protocol:
Semiquantitative PCR experiments from seedlings were performed using RNA prepared as afore-mentioned. RNA extraction from seeds was carried out as previously described (Onate-Sanchez and Vicente-Carbajosa, 2008). cDNA from all tissues was synthetized as described above. […] of one-fifth diluted cDNA was used to amplify DDA1-GFP, 3HA-PYL8 and the housekeeping gene ACTIN8 using the following primer:
The PCR conditions were as follows: 1 min at 94° C., 35 cycles of 15 s at 94° C., 1 min at 58-62° C., and 1 min 30 s at 72° C., and finally, 5 min at 72° C. 25

In test [1] the target is T1, 3HA-PYL8 (Arabidopsis thaliana, UniProt Q9FGM1).
T1 construct: expressed in transfected cells; host or cells: stably transformed Arabidopsis thaliana (Col-0) plants, line oe3HA-PYL8: seedlings or imbibed seeds; seed lines in pyl8-1 background, some crossed with oeDDA1-GFP
T1 sequence (Q9FGM1 1-188): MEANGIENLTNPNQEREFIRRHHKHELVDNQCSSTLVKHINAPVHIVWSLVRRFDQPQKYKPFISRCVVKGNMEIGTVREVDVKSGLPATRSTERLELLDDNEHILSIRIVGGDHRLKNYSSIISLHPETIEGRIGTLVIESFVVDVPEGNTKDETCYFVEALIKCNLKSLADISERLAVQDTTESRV
Put plainly: Immunoblot of 3HA-PYL8 levels in imbibed seeds. To be noted: 24 h in MS media with 3 μM ABA. It is filed as in vivo. As for the experimental part: (G) Immunoblot analysis of 3HA-PYL8 levels in seeds corresponding to oe3HA-PYL8/oeDDA1-GFP and control (oe3HA-PYL8) plants. Both lines were in the pyl8-1 background. Prior to protein extraction, imbibed seeds were maintained for 24 h in MS media with or without 3 μM ABA. Anti-HA and anti-RPT5 antibodies were used to detect 3HA-PYL8 and for loading control purposes, respectively.
(§1) For protein extraction from seedlings, proteins were extracted in buffer containing 50 mM Tris-HCl pH 7.4, 150 mM NaCl, 10mM MgCl2, 1 mM PMSF, 0.1%NP-40 and 1× complete protease inhibitor (Roche). After centrifugation at 16,000 g at 4° C., the supernatants were collected. This step was repeated twice. For protein extraction from seeds, seeds were frozen in liquid N2 and then homogenized in buffer containing 7 M urea, 2 M thiourea, 4% 3-[(3-cholamidopropyl)dimethylammonio]-1-propanesulfonate (CHAPS; w/v), 18 mM Tris-HCl pH 7.5, 0,2% Triton X100, 1× complete protease inhibitor (Roche). After 10 min incubation at 4° C. with rotation. DTT was added to protein extracts (14 mM final concentration), prior to 20 min incubation at 4° C. Extracts were clarified by centrifugation as afore-mentioned. Protein concentration in final supernatants was determined using a Bio-Rad Protein Assay kit. […]

Test [2] addresses T1, 3HA-PYL8. Briefly: In vivo protein degradation assay (cycloheximide time course, immunoblot). To be noted: 8-d-old seedlings treated with cycloheximide, 50 μM ABA. The protocol:
as §1, with “kit. For in vivo co-immunoprecipitation assays, normalized seedling protein extracts were incubated with 5 μl anti-GFP antibody (Living colors Full length A.V. Polyclonal Antibody, Clontech) for 1 h at 4° C. with rotation. 10 μl of protein A-coupled beads (prewashed twice with 0.1 M Glycine pH 2.7) were added to the samples and incubated for an additional hour at 4° C. with rotation.” for “kit.”

For test [3], the target named is T2, PP2C-ABA-PYL8 ternary complexes (Arabidopsis thaliana, UniProt Q9FGM1).
T2 sequence (Q9FGM1 1-188): T1 sequence (Q9FGM1 1-188)
To be noted: ternary complex of PYL8 with ABA and clade A PP2C; cited from earlier work.

The next test deals with PYL8 gene expression. To be noted: after 3 h of ABA treatment; cited from earlier work.

A word on the Kd: it is the free concentration of one partner at which half of the binding sites on the other are occupied at equilibrium, for simple one-to-one binding. For `CC1=CC(=O)CC(C)(C)[C@@]1(O)/C=C/C(C)=C\C(=O)O` [ABA, abscisic acid], the HA-PYL8 transcript levels entry in the test with HA-PYL8 transcript is listed as “reduced HA-PYL8 transcript levels”. The “3HA-PYL8 accumulation in seeds” value at 3HA-PYL8 [1] is “increased accumulation of 3HA-PYL8”. Also, the 3HA-PYL8 degradation result on 3HA-PYL8 [2] was “blocked 3HA-PYL8 degradation”. Besides, in test [3], the Kd was 20 to 40 nM. Further, in the test on PYL8 gene expression, the PYL8 gene expression result is “reduces PYL8 gene expression”.
